According to paper PMC12040169 (PLOS Biology, 2025):

experiment: in vitro; details: human, hela cells, % viability

| Structure (SMILES) | viability at 28.5 h, 10 µM [%] |
| --- | --- |
| O=C1NC2(CCCCC2)C(=O)N1Cc1cnn(-c2ccccc2)n1 [CBK305570] | 97.8 |
| Cn1ccc(C(=O)NCc2cccnc2OCC(F)(F)F)cc1=O [CBK305574] | 99.9 |
| Cc1cc(NC(=O)CN(C)C(=O)c2ccc(-n3cc(Br)cn3)cc2)no1 [CBK305575] | 100 |
| CN(C1CCCCC1)S(=O)(=O)NCCc1cn2ccccc2n1 [CBK305576] | 102 |
| CCn1c(=O)n(CCC(N)=O)c2cc(S(=O)(=O)N(C)C)ccc21 [CBK305577] | 99.6 |
| O=C(NCc1cccnc1OCC(F)(F)F)c1ccc(=O)[nH]n1 [CBK305578] | 92.1 |
| O=C(Cn1ccc(=O)[nH]c1=O)NCc1cccnc1OC1CCCC1 [CBK305582] | 94.9 |
| CCOC(=O)Cc1csc(SC(C)C(=O)N2CCc3ccccc3C2)n1 (stereo not shown) [CBK305586] | 99.9 |
| COCCn1nc(C(=O)N2CCCc3ccccc32)ccc1=O [CBK305590] | 85.1 |
| CC(=O)Nc1nc(CN2CCOC(c3ccc(F)cc3)C2)cs1 (stereo not shown) [CBK305591] | 98.5 |
| O=C(Cn1cccn1)NCC(c1ccccc1Cl)N1CCOCC1 (stereo not shown) [CBK305593] | 93.1 |
| CCCC1(C)NC(=O)N(Cc2coc(-c3cccs3)n2)C1=O (stereo not shown) [CBK305594] | 100 |
| O=C(NCCc1ccsc1)N1CCN(c2ccncc2)CC1 [CBK305595] | 102 |
| CN(CC1CCCN(C(=O)Nc2cccc(Cl)c2)C1)C(=O)OC(C)(C)C (stereo not shown) [CBK305597] | 94.2 |
| CN1CCN(c2nc(-c3ccc4c(c3)CCCC(=O)N4)cs2)CC1 [CBK305600] | 98.6 |
| O=C1NC(=O)C2(CCN(C(=O)c3csc4c3CCCC4)CC2)N1 [CBK305601] | 97.2 |
| CC(=O)N1CCN(C(=O)C(C)S(=O)(=O)c2ccccc2F)CC1 (stereo not shown) [CBK305603] | 97.7 |
| CCOc1ccc(CN(C)CC(=O)Nc2cc(C)no2)cc1 [CBK305605] | 79.8 |
| CCOc1ccc(CN(C)C(C)C(=O)Nc2cc(C)no2)cc1 (stereo not shown) [CBK305607] | 96.6 |
| COCCNC(=O)CN(C)c1nc(-c2ccncc2)nc2ccccc12 [CBK305611] | 94.2 |
| Cn1cc(CCNC(=O)NC2CCN(c3ncccn3)CC2)cn1 [CBK305612] | 104 |
| CCOC(=O)c1cnn2c(O)cc(CN(Cc3ccco3)C3CC3)nc12 [CBK305613] | 82.3 |
| COc1ccc(CC(=O)NCC(c2cccs2)N2CCOCC2)cc1F (stereo not shown) [CBK305618] | 99.5 |

| Structure (SMILES) | viability at 28.5 h, 10 µM [%] |
| --- | --- |
| CS(=O)(=O)NC1CCCN(c2ncnc3ccccc23)C1 (stereo not shown) [CBK305619] | 111 |
| Cc1cc(C)n(CC(=O)NCC(c2cccs2)N2CCOCC2)n1 (stereo not shown) [CBK305620] | 102 |
| Cc1cc(C)n(CC(C)CNC(=O)Cc2csc(N3CCCC3=O)n2)n1 (stereo not shown) [CBK305624] | 91.2 |
| Cn1cc(-c2nc(C(=O)NC3CCCN(c4ncccn4)C3)cs2)cn1 (stereo not shown) [CBK305629] | 77.7 |
| CC(C)c1nc(CC(=O)NCCS(=O)(=O)N2CCc3ccccc32)cs1 [CBK305630] | 84.5 |
| Cc1occc1C(=O)Nc1nc(CC(=O)N(C)Cc2ccsc2)cs1 [CBK305631] | 83.8 |
| Cc1nc(-c2ccsc2)sc1C(=O)NC1CCCN(c2ncccn2)C1 (stereo not shown) [CBK305632] | 87.6 |
| Cn1cc(-c2nc(C(=O)NCC3CCN(c4ccccc4)C3)cs2)cn1 (stereo not shown) [CBK305633] | 84.8 |
| CC1c2ccsc2CCN1C(=O)CC(NC(N)=O)c1cccc(Br)c1 (stereo not shown) [CBK305635] | 110 |
| Cc1cc(NC(=O)CCc2c(C)nc(N3CCOCC3)[nH]c2=O)no1 [CBK305636] | 93.2 |
| O=C(NCCNc1cnccn1)c1ccc(Br)cc1F [CBK305639] | 89.5 |
| COCCn1c(SCc2nc3ccccc3nc2C)nc(C)c1C [CBK305651] | 106 |
| Cc1c(C(=O)NC2CCCN(c3ncccn3)C2)cnn1C(C)(C)C (stereo not shown) [CBK305652] | 91.3 |
| Cn1cc(CCNC(=O)Nc2ccc(N3CCCCC3)nc2)cn1 [CBK305656] | 95.2 |
| Cc1nn(C)c2ncc(C(=O)N(C)Cc3ccc(C(C)(C)C)cc3)cc12 [CBK305657] | 99.9 |
| O=C(NCc1cccs1)NC1CCCc2c1cnn2CCO (stereo not shown) [CBK305658] | 100 |
| Cc1nc(COc2ccc(C(=O)N3CCCC(C(N)=O)C3)cc2)no1 (stereo not shown) [CBK305660] | 84.2 |
| CCOC(=O)C1CCCN(C(=O)Nc2cc(C)on2)C1 (stereo not shown) [CBK305661] | 81.8 |
| CCCNC(=O)CN1CCC(NC(=O)Cn2cc(Br)ccc2=O)CC1 [CBK305665] | 94 |
| Cn1cc(-c2nc(C(=O)NCc3ccnc(N4CCCC4)c3)cs2)cn1 [CBK305666] | 92.9 |
| O=C(Cn1cc(Br)ccc1=O)NC1CCCN(Cc2ccccc2)C1 (stereo not shown) [CBK305668] | 83.7 |
| Cc1cccc(CN2CCC(NC(=O)Cn3cc(Br)ccc3=O)CC2)c1 [CBK305669] | 80 |
| O=C(Cn1cc(Br)ccc1=O)NC1CCN(Cc2ccccc2)CC1 [CBK305671] | 95.6 |

| Structure (SMILES) | viability at 28.5 h, 10 µM [%] |
| --- | --- |
| CCCNC(=O)CN(C)Cc1nc(-c2cccc(C(F)(F)F)c2)no1 [CBK305672] | 103 |
| Cn1cc(C(=O)NC2CCN(C(=O)c3cccc(C#N)c3)CC2)cn1 [CBK305673] | 110 |
| O=C(CCN1CCCC1Cn1cncn1)NCCc1ccccc1 (stereo not shown) [CBK305677] | 92.9 |
| CC(OCc1ccccc1)C(=O)NCC1(N2CCOCC2)CCSC1 (stereo not shown) [CBK305678] | 114 |
| CC(=O)Nc1ccc(CNC(=O)c2cccnc2OCC(F)(F)F)cc1 [CBK305682] | 91.5 |
| Cn1cc(C(=O)NC2CCN(C(=O)c3ccc(C#N)cc3)CC2)cn1 [CBK305683] | 94.4 |
| Cc1cc(NC(=O)C2CCN(CCOc3ccccc3F)CC2)no1 [CBK305688] | 100 |
| CCCC(=O)Nc1ccc(OCCOC(C)(C)C)c(C(C)=O)c1 [CBK305691] | 79.8 |
| Cc1nn(CCC#N)c(C)c1CCC(=O)NCc1ccccn1 [CBK305693] | 82.5 |
| CCOC(=O)c1cnn2c(O)cc(CN3CCCc4ccccc43)nc12 [CBK305694] | 118 |
| CC(C)(C)OC(=O)N1CCC(C(=O)NCc2ccccn2)CC1 [CBK305696] | 103 |
| CCOC(=O)N1CCC(NS(=O)(=O)c2cn(C)c(=O)n(C)c2=O)CC1 [CBK305699] | 89.1 |
| CCN(Cc1ccc(C#N)cc1F)C(=O)Nc1cnn(CC)c1 [CBK305702] | 93.1 |
| COCCn1c(SCc2cn3cc(Br)ccc3n2)nc(C)c1C [CBK305704] | 83.1 |
| CCCCc1nc(CS(=O)(=O)C(C)c2nc(C(C)C)no2)cs1 (stereo not shown) [CBK305707] | 88.3 |
| Cc1cc(C)n(CCCNC(=O)Cc2csc(N3CCCC3=O)n2)n1 [CBK305708] | 94.6 |
| COC(=O)c1cc(C#N)c(=O)n(CC(O)COc2c(C)cccc2C)c1 (stereo not shown) [CBK305709] | 97.2 |
| Cc1cc(N2CCN(C(=O)CCc3ccccc3)CC2)nc(C(C)C)n1 [CBK305711] | 99.3 |
| COc1ccc(CN2CCN(C(=O)c3cccc(N(C)C)c3)CC2)cc1 [CBK305713] | 98 |
| C#CCNS(=O)(=O)c1cccc(C(=O)NC2CCN(CCOC)CC2)c1 [CBK305714] | 89 |
| COC(=O)c1cc(C#N)c(=O)n(CC(O)COCc2ccco2)c1 (stereo not shown) [CBK305718] | 94.7 |
| COc1ccc(C(=O)N2CCN(c3cnn(C)c(=O)c3Cl)CC2)cc1 [CBK305720] | 84.8 |
| Cn1cc(C(=O)OCc2cccc(S(=O)(=O)N3CCOCC3)c2)cn1 [CBK305721] | 88.1 |

| Structure (SMILES) | viability at 28.5 h, 10 µM [%] |
| --- | --- |
| Cc1cc(C)cc(C(=O)N2CCC(NC(=O)c3cnn(C)c3)CC2)c1 [CBK305723] | 92.3 |
| Cc1cc(N2CCOCC2)ccc1NC(=O)CCOc1cccc(Cl)c1 [CBK305724] | 102 |
| CCc1nc(COC(=O)C2CCN(C(=O)c3ccc(F)cc3)CC2)cs1 [CBK305725] | 111 |
| O=C(NCCNc1cnccn1)c1cccc(Cl)c1Cl [CBK305727] | 84.9 |
| CC(=O)Nc1ccc(C(=O)NCc2ccc(OCC(F)(F)F)cc2)cc1 [CBK305732] | 98 |
| COC(=O)c1ccc(N2CCN(Cc3nc(C4CC4)no3)C(C)C2)cc1 (stereo not shown) [CBK305744] | 98 |
| CN(CCCc1cc(-c2cccc(F)c2)n[nH]1)C(=O)c1cnn(C)c1 [CBK305745] | 86.6 |
| CCc1ccc(CNC(=O)NC2CCCc3c2cnn3CCO)s1 (stereo not shown) [CBK305747] | 84.4 |
| CC(Oc1cccc(C#N)c1)C(=O)N1CCSCC1 (stereo not shown) [CBK305748] | 97 |
| CC(C)Oc1ncc(C(=O)Nc2ccc(OCCC(N)=O)cc2)cc1Cl [CBK305750] | 102 |
| Cc1noc(C)c1CN1CCC(Cc2ccccc2)CC1 [CBK305752] | 96.8 |
| Cc1nc(CNCc2c(C)nn(C)c2N2CCOCC2)cs1 [CBK305753] | 83.7 |
| Cc1cccc(NCC2CCN(Cc3cc(=O)n4ccccc4n3)C2)n1 (stereo not shown) [CBK305756] | 100 |
| COCCN(C(=O)c1ccc2ccccc2c1)C1CCS(=O)(=O)C1 (stereo not shown) [CBK305758] | 102 |
| Cc1cc(C2CCCN2C(=O)c2ccc(C(F)(F)F)nc2)on1 (stereo not shown) [CBK305761] | 88.6 |
| Cc1ccc(Cl)c(OC(C)C(=O)N2CCC(CC(N)=O)CC2)c1 (stereo not shown) [CBK305762] | 93 |
| Cc1csc(C2CN(Cc3ccn(C)c(=O)c3)CCO2)n1 (stereo not shown) [CBK305763] | 91.4 |
| Cc1cccn2c(=O)cc(CN3CCC(c4cn[nH]c4)CC3)nc12 [CBK305764] | 101 |
| Cc1nc(S(=O)(=O)N2CCC(C(=O)N3CCCCCC3)CC2)cn1C [CBK305765] | 99.3 |
| CC(C)(C)OC(=O)N1CCCC(C(=O)NC(C(N)=O)c2ccccc2)C1 (stereo not shown) [CBK305766] | 99.8 |
| CCN(Cc1cccs1)C(=O)NC1CCCc2c1cnn2CCO (stereo not shown) [CBK305768] | 81.6 |
| CCOc1ccc(C(=O)N2CC(C(N)=O)CCC2C)cn1 (stereo not shown) [CBK305770] | 102 |
